# Reference: patent EP4353225A1, “NUTRACEUTICAL OR PHARMACEUTICAL COMPOSITION FOR THE TREATMENT OF PELVIC PAIN” (Erbozeta S.p.A., priority 2022, dated 2024)
# Columns and labels:
# [1] = tested on: IL-1β; assay: ELISA of IL-1β in T24 bladder urothelium cells exposed to THP-1 conditioned media; type: cell-based, human; details: T24 cells 4 h
# Method: (§1) Based on the results of the cytotoxicity experiments, the medium conditioned on THP-1 to be used to study the possible anti-inflammatory activity on the bladder urothelium was obtained by exposing for 2 h the differentiated THP-1 cells to the concentrations of the three functional ingredients and the MIX corresponding to 600, 400, 200, 100, 50 and 25 µg/mL for the MICRONIZED PEA, 15, 10, 5, 2.5, 1.25, 0.625 µg/mL for the DRY MARITIME PINE EXTRACT, 75, 50, 25, 12.5, 6.25, 3.125 µg/mL for HEMP OIL and 690, 460, 230, 115, 57.5 and 28.75 µg/mL for the MIX, respectively. At the end of this incubation, the cells were treated for a further 6 h with the inflammatory stimulus E. coli in the presence of the different treatments. Cells exposed only with the inflammatory stimulus in the absence of pre-treatment were used as a positive control of inflammation.
# (§2) The specific anti-inflammatory activity on the bladder urothelium of the three functional ingredients and the MIX was evaluated on an in vitro bladder urothelium epithelium composed of the T24 cell line (ATCC HTB-4TM). T24 cells were exposed for 4 h to conditioned media obtained by treating THP-1 cells differentiated into macrophages with different concentrations of the functional ingredients and MIX, and in the presence of E. coli. At the end of treatment, T24 cells were detached with trypsin, centrifuged, and lysed by sonication in lysis buffer. The supernatant obtained following centrifugation at 10,000 g for 10 min at 4 °C was stored at -80 °C. An extended analysis of the impact of functional ingredients and MIX on inflammation was performed using an assay for the determination of the transcription factor Nf-kB (Abcam) and the evaluation of the expression of pro-inflammatory cytokines with an array of 23 human cytokines (Raybiotech), following the manufacturer's instructions. The cytokines interleukin 1β (IL-1β), interleukin 6 (IL-6), and interleukin 8 (IL-8) were quantified by ELISA assay.
# (§3) The results are reported expressed as fold change, calculated as the ratio between the values obtained from the respective treatments on the control of inflammation. As such, the fold change is adimensional.
# [2] = tested on: GRO alpha; assay: Cytokine array (23 human cytokines) in T24 bladder urothelium cells exposed to THP-1 conditioned media: GRO alpha; type: cell-based; details: T24 cells 4 h
# Method: as §1, §2, §3
# [3] = tested on: transcription factor Nf-kB; assay: Nuclear levels of transcription factor Nf-kB in T24 bladder urothelium cells exposed to THP-1 conditioned media; type: cell-based, human; details: T24 cells 4 h
# Method: as §1, §2, §3
# [4] = tested on: GM-CSF; assay: Cytokine array (23 human cytokines) in T24 bladder urothelium cells exposed to THP-1 conditioned media: GM-CSF; type: cell-based; details: T24 cells 4 h
# Method: as §1, §2, §3
# [5] = tested on: GRO a/b/g; assay: Cytokine array (23 human cytokines) in T24 bladder urothelium cells exposed to THP-1 conditioned media: GRO a/b/g; type: cell-based; details: T24 cells 4 h
# Method: as §1, §2, §3
# [6] = tested on: IL-8; assay: ELISA of IL-8 in T24 bladder urothelium cells exposed to THP-1 conditioned media; type: cell-based, human; details: T24 cells 4 h
# Method: as §1, §2, §3
# [7] = tested on: THP-1 differentiated into macrophages; assay: Cytotoxicity / cell viability of differentiated THP-1 in the presence of E. coli (ATP assay); type: cell-based; details: 2 h pre-treatment + 6 h E. coli
# Method: Human THP-1 monocytes (ATCC® TIB-202TM) were maintained in THP-1 complete medium (THP-1 CCM) and cultured in a controlled atmosphere at 37 °C. Differentiation into macrophages was induced by incubation with phorbol myristate acetate (PMA) for 24 h. The culture medium was then replaced and the cells left with fresh medium for another 24 h before being exposed to the three functional ingredients, their MIX and the inflammatory stimulus, E. coli.
# The cytotoxicity of the three functional ingredients and their MIX was evaluated on a THP-1 immune system model differentiated into macrophages. Based on the method of intake of the formulation, a digestion volume of 2 liters was considered in order to mimic as much as possible the physiological condition of the average volume of liquid contained in the stomach during the digestive process. Cytotoxicity was carried out by constructing a dose-response curve at increasing concentrations of the individual functional ingredients and the MIX in order to identify the maximum concentration usable for subsequent tests. The following concentrations were therefore tested on THP-1: from 50 µg/mL to 600 µg/mL for PEA, from 1.25 µg/mL to 15 µg/mL for DRY MARITIME PINE EXTRACT, from 6.25 µg/mL to 75 µg/mL for HEMP OIL and from 57.5 µg/mL to 690 µg/mL for the MIX. Based on the results of the dose-response curves, cell viability analysis was not performed at higher concentrations due to mortality caused by the mixture at the highest concentration tested. The concentrations used for subsequent experiments were selected in this concentration range. The three functional ingredients and the MIX were dissolved in THP-1 CCM in the absence of antibiotic and in the presence of 1.18 mg/mL of bile as surfactant. The suspensions were incubated under stirring overnight to increase the passage of the functional ingredients into solution and, the following day, the THP-1 cells were washed with Hank's Balanced Salt Solution (HBSS) and pre-treated for 2 h with the different concentrations of the individual functional ingredients and the MIX. At the end of this incubation, the pro-inflammatory stimulus E. coli (1 × 10^6 CFU/mL) was added to the treated cells for a further 6 h. Cells treated only with E. coli were used as a negative control, while cells treated with 10 µM staurosporine were used as a positive cell death control. At the end of the 8 h of treatment, cell viability was assessed by ATP assay (PerkinElmer) to avoid any possible interference from the bacteria present that may occur using other tests such as MTS.
# [8] = tested on: IL-6; assay: ELISA of IL-6 in T24 bladder urothelium cells exposed to THP-1 conditioned media; type: cell-based, human; details: T24 cells 4 h
# Method: as §1, §2, §3
# [9] = Condition 1: MICRONIZED PEA 600, MARITIME PINE EXTRACT 15, HEMP OIL 75, MIX 690 µg/mL (1200, 30, 150, 1380 mg)
# [10] = Condition 2: MICRONIZED PEA 400, MARITIME PINE EXTRACT 10, HEMP OIL 50, MIX 460 µg/mL (800, 20, 100, 920 mg)
# [11] = Condition 3: MICRONIZED PEA 200, MARITIME PINE EXTRACT 5, HEMP OIL 25, MIX 230 µg/mL (400, 10, 50, 460 mg)
# [12] = Condition 4: MICRONIZED PEA 100, MARITIME PINE EXTRACT 2.5, HEMP OIL 12.5, MIX 115 µg/mL (200, 5, 25, 230 mg)
# [13] = Condition 5: MICRONIZED PEA 50, MARITIME PINE EXTRACT 1.25, HEMP OIL 6.25, MIX 57.5 µg/mL (100, 2.5, 12.5, 115 mg)
# [14] = Condition 6: MICRONIZED PEA 25, MARITIME PINE EXTRACT 0.625, HEMP OIL 3.125, MIX 28.75 µg/mL (50, 1.25, 6.25, 57.5 mg)
structure (smiles),measurement,setting,value
"CCCCCCCCCCCCCCCC(=O)NCCO [MICRONIZED PEA, palmitoylethanolamide]",IL-1β (Fold change vs Control) Average,[1]; [9],0.14 Fold change
same,IL-1β (Fold change vs Control) Average,[1]; [10],0.25 Fold change
same,IL-1β (Fold change vs Control) Average,[1]; [11],0.15 Fold change
same,IL-1β (Fold change vs Control) Average,[1]; [12],0.25 Fold change
same,IL-1β (Fold change vs Control) Average,[1]; [13],0.30 Fold change
same,IL-1β (Fold change vs Control) Average,[1]; [14],0.30 Fold change
same,GRO alpha (Fold change vs Control) Average,[2]; [9],1.49 Fold change
same,GRO alpha (Fold change vs Control) Average,[2]; [10],0.79 Fold change
same,GRO alpha (Fold change vs Control) Average,[2]; [11],1.28 Fold change
same,GRO alpha (Fold change vs Control) Average,[2]; [12],1.23 Fold change
same,GRO alpha (Fold change vs Control) Average,[2]; [13],0.91 Fold change
same,GRO alpha (Fold change vs Control) Average,[2]; [14],1.17 Fold change
same,Nf-kB (Fold change vs Control) Average,[3]; [9],2.89 Fold change
same,Nf-kB (Fold change vs Control) Average,[3]; [10],6.16 Fold change
same,Nf-kB (Fold change vs Control) Average,[3]; [11],0.12 Fold change
same,Nf-kB (Fold change vs Control) Average,[3]; [12],0.75 Fold change
same,Nf-kB (Fold change vs Control) Average,[3]; [13],0.57 Fold change
same,Nf-kB (Fold change vs Control) Average,[3]; [14],0.43 Fold change
same,Nf-kB levels (nuclear translocation),"[3]; result in words, over the concentrations tested",reduces the nuclear translocation of the transcription factor NF-κB starting from 25 µg/mL (50 mg) up to 200 µg/mL (400 mg)
same,GM-CSF fold change vs control,[4]; [9],1.01 Fold change
same,GM-CSF fold change vs control,[4]; [10],1.1 Fold change
same,GM-CSF fold change vs control,[4]; [11],0.9 Fold change
same,GM-CSF fold change vs control,[4]; [12],0.21 Fold change
same,GM-CSF fold change vs control,[4]; [13],1.15 Fold change
same,GM-CSF fold change vs control,[4]; [14],1.19 Fold change
same,GRO a/b/g (Fold change vs Control) Average,[5]; [9],1.14 Fold change
same,GRO a/b/g (Fold change vs Control) Average,[5]; [10],0.92 Fold change
same,GRO a/b/g (Fold change vs Control) Average,[5]; [11],0.81 Fold change
same,GRO a/b/g (Fold change vs Control) Average,[5]; [12],0.58 Fold change
same,GRO a/b/g (Fold change vs Control) Average,[5]; [13],1 Fold change
same,GRO a/b/g (Fold change vs Control) Average,[5]; [14],1.13 Fold change
same,IL-8 (Fold change vs Control) Average,[6]; [9],0.55 Fold change
same,IL-8 (Fold change vs Control) Average,[6]; [10],0.49 Fold change
same,IL-8 (Fold change vs Control) Average,[6]; [11],0.51 Fold change
same,IL-8 (Fold change vs Control) Average,[6]; [12],0.54 Fold change
same,IL-8 (Fold change vs Control) Average,[6]; [13],0.68 Fold change
same,IL-8 (Fold change vs Control) Average,[6]; [14],0.69 Fold change
same,Viability,[7]; MICRONIZED PEA 50 µg/mL (100 mg),73.2 ± 9.5%
same,Viability,[7]; MICRONIZED PEA 100 µg/mL (200 mg),106.5 ± 5.6%
same,Viability,[7]; MICRONIZED PEA 300 µg/mL (600 mg),86.5 ± 5.9%
same,Viability,[7]; MICRONIZED PEA 500 µg/mL (1000 mg),71.9 ± 1.3%
same,Viability,[7]; MICRONIZED PEA 600 µg/mL (1200 mg),73.9 ± 19.5%
same,IL-6 (Fold change vs Control) Average,[8]; [9],0.48 Fold change
same,IL-6 (Fold change vs Control) Average,[8]; [10],0.34 Fold change
same,IL-6 (Fold change vs Control) Average,[8]; [11],0.34 Fold change
same,IL-6 (Fold change vs Control) Average,[8]; [12],0.33 Fold change
same,IL-6 (Fold change vs Control) Average,[8]; [13],0.38 Fold change
same,IL-6 (Fold change vs Control) Average,[8]; [14],0.45 Fold change
